Our source for the IC50 values is patent publication US20090124610A1, “PHARMACEUTICAL COMPOUNDS” (priority 2006, published 2009).

The structures appear in SMILES notation. Where a name gives a salt, the structure may show the parent alone.

T1 sequence (P31751 with tags, fused parts or gaps limits assumed): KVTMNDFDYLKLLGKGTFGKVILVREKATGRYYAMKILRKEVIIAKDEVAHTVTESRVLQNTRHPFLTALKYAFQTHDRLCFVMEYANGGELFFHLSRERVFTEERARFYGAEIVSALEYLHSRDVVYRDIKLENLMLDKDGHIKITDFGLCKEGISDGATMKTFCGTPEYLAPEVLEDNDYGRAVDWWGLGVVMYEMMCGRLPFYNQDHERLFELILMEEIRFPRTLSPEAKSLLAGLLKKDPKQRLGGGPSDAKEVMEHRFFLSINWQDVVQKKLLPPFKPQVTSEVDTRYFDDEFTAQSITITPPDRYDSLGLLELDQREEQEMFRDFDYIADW

One test addresses T1, PKB-PIF (Homo sapiens, UniProt P31751).
T1 construct: PIF (fusion partner); made in house
Briefly: Measurement of PKB kinase inhibitory activity (IC50), 33P-ATP filter plate assay. It counts as biochemical. The following applies: 0.6 nM enzyme, 30 μM ATP/γ33P-ATP, 25 μM AKTide-2T substrate, 20 minutes. From the text:
The inhibition of protein kinase B (PKB) activity by compounds can be determined determined essentially as described by Andjelkovic et al. (Mol. Cell. Biol. 19, 5061-5072 (1999)) but using a fusion protein described as PKB-PIF and described in full by Yang et al (Nature Structural Biology 9, 940-944 (2002)). The protein is purified and activated with PDK1 as described by Yang et al. The peptide AKTide-2T (H-A-R-K-R-E-R-T-Y-S-F-G-H-H-A-OH) obtained from Calbiochem (#123900) is used as a substrate. A final concentration of 0.6 nM enzyme is used in a buffer that includes 20 mM MOPS pH 7.2, 30 μM ATP/γ^33P-ATP and 25 μM substrate. Compounds are added in DMSO solution to a final DMSO concentration of 2.5%. The reaction is allowed to proceed for 20 minutes before addition of excess orthophosphoric acid to quench activity. The reaction mixture is transferred to a phosphocellulose filter plate where the peptide binds and the unused ATP is washed away. After washing, scintillant is added and the incorporated activity measured by scintillation counting.
The % inhibition of the PKB activity is calculated and plotted in order to determine the concentration of test compound required to inhibit 50% of the PKB activity (IC50).
On to `NC1(C(=O)NCc2ccc(Cl)cc2)CCN(c2ncnc3ccsc23)CC1` [Example 5, 4-Amino-1-thieno[3,2-d]pyrimidin-4-yl-piperidine-4-carboxylic acid 4-chloro-benzylamide], for which the IC50 (as a rule, the midpoint of a concentration-inhibition curve) was < 1000 nM.

On to `NC1CCN(c2ccnc3c2C(=O)C(=O)N3)CC1` [Example 10, 4-(4-Amino-piperidin-1-yl)-1H-pyrrolo[2,3-b]pyridine-2,3-dione], for which the IC50 is < 50000 nM. The same measure, in the same setting: the same measure for `Clc1ccc(C2(c3ccc(-c4ncnc5ccsc45)cc3)CCNCC2)cc1` [Example 4, 4-{4-[4-(4-Chloro-phenyl)-piperidin-4-yl]-phenyl}-thieno[3,2-d]pyrimidine formate]: < 1000 nM.

On to `NC1CCN(c2ncnc3ccsc23)CC1` [Example 6, 1-Thieno[3,2-d]pyrimidin-4-ylpiperidin-4-ylamine], for which the IC50 is < 5000 nM. Same read-out and setting: the same measure for `NC1(Cc2ccc(Cl)cc2)CCN(c2ncnc3ccsc23)CC1` [Example 7, 4-(4-Chlorobenzyl)-1-thieno[3,2-d]pyrimidin-4-ylpiperidin-4-ylamine]: < 1000 nM.

Regarding `NCCC(c1ccc(Cl)cc1)c1ccc(-c2ncnc3ccsc23)cc1` (stereo not shown) [Example 2, 3-(4-Chloro-phenyl)-3-(4-thieno[3,2-d]pyrimidin-4-yl-phenyl)-propylamine], the IC50 was < 1000 nM.

In the case of `NC1(Cc2ccc(Cl)cc2)CCN(c2ccnc3c2OCC(=O)N3)CC1` [Example 11, 8-[4-Amino-4-(4-chloro-benzyl)-piperidin-1-yl]-4H-pyrido[3,2-b][1,4]oxazin-3-one], the IC50 is < 5000 nM. Same read-out and setting: the same measure for `NC(c1ccc(Cl)cc1)C1CCN(c2ncnc3ccsc23)CC1` (stereo not shown) [Example 8, C-(4-Chlorophenyl)-C-(1-thieno[3,2-d]pyrimidin-4-ylpiperidin-4-yl)methylamine]: < 1000 nM. With `NCC(c1ccc(Cl)cc1)N1CCN(c2ncnc3ccsc23)CC1` (stereo not shown) [Example 3, 2-(4-Chloro-phenyl)-2-(4-thieno[3,2-d]pyrimidin-4-yl-piperazin-1-yl)-ethylamine formate], the IC50 is < 1000 nM. Still for that read-out and setting: the same measure for `CNCC(c1ccc(Cl)cc1)c1ccc(-c2ncnc3ccsc23)cc1` (stereo not shown) [Example 1, [2-(4-Chloro-phenyl)-2-(4-thieno[3,2-d]-pyrimidin-4-yl-phenyl)-ethyl]-methyl-amine bis-trifluoroacetate]: < 1000 nM. On the same count and under the same terms, in the case of `NC1CCN(c2ncnc3sccc23)CC1` [Example 9, 1-Thieno[2,3-d]pyrimidin-4-ylpiperidin-4-ylamine] it was < 50000 nM.

A further test concerns the target T2, PKA catalytic domain (Homo sapiens, UniProt P17612).
T2 construct: using the PKA catalytic domain from Upstate Biotechnology (#14-440); purchased Upstate Biotechnology 14-440
Briefly: Measurement of PKA kinase inhibitory activity (IC50), 33P-ATP filter plate assay. The class given is biochemical. As to conditions: 1 nM enzyme, 40 μM ATP/γ33P-ATP, 5 μM substrate […], 20 minutes. As to the method: Compounds of the invention can be tested for PK inhibitory activity using the PKA catalytic domain from Upstate Biotechnology (#14-440) and the 9 residue PKA specific peptide ([…]), also from Upstate Biotechnology (#12-257), as the substrate. A final concentration of 1 nM enzyme is used in a buffer that includes 20 mM MOPS pH 7.2, 40 μM ATP/γ^33P-ATP and 5 μM substrate. Compounds are added in dimethylsulphoxide (DMSO) solution to a final DMSO concentration of 2.5%. The reaction is allowed to proceed for 20 minutes before addition of excess orthophosphoric acid to quench activity. Unincorporated γ^33P-ATP is then separated from phosphorylated proteins on a Millipore MAPH filter plate. The plates are washed, scintillant is added and the plates are then subjected to counting on a Packard Topcount.
The % inhibition of the PKA activity is calculated and plotted in order to determine the concentration of test compound required to inhibit 50% of the […] activity (IC50).
With `Clc1ccc(C2(c3ccc(-c4ncnc5ccsc45)cc3)CCNCC2)cc1` [Example 4, 4-{4-[4-(4-Chloro-phenyl)-piperidin-4-yl]-phenyl}-thieno[3,2-d]pyrimidine formate], the IC50 is < 1000 nM. The same measure, in the same setting: in the case of `CNCC(c1ccc(Cl)cc1)c1ccc(-c2ncnc3ccsc23)cc1` (stereo not shown) [Example 1, [2-(4-Chloro-phenyl)-2-(4-thieno[3,2-d]-pyrimidin-4-yl-phenyl)-ethyl]-methyl-amine bis-trifluoroacetate] it was < 1000 nM.
